US8853392B2, “Benzamide mGluR5 positive allosteric modulators and methods of making and using same” (Vanderbilt University, priority 2007, dated 2014)
Where two headings read alike, the source gives them in different places.

Target: T1, rat mGluR5 (Rattus norvegicus, UniProt P31424)
T1 construct: expressed in transfected cells; host or cells: human embryonic kidney (HEK) cells
Assay: potentiation of mGluR5 response to glutamate, Ca2+ fluorescence (FDSS) in HEK cells transfected with rat mGluR5
Assay type: cell-based
Details: for EC50: read-out: EC50
Procedure: Human embryonic kidney (HEK) cells transfected with rat mGluR5 were plated in clear bottom assay plates for assay in a Functional Drug Screening System (FDSS). The cells were loaded with a Ca^2+-sensitive fluorescent dye (e.g., Fluo-4), and the plates were washed and placed in the FDSS instrument. After establishment of a fluorescence baseline for twelve seconds, the compounds of the present invention were added to the cells, and the response in cells was measured. Five minutes later, an mGluR5 agonist (e.g., glutamate, 3,5-dihydroxyphenylglycine, or quisqualate) was added to the cells, and the response of the cells was measured. Potentiation of the agonist response of mGluR5 by the compounds in the present invention was observed as an increase in response to non-maximal concentrations of agonist (here, glutamate) in the presence of compound compared to the response to agonist in the absence of compound.
The above described assay operated in two modes. In the first mode, a range of concentrations of the present compounds were added to cells, followed by a single fixed concentration of agonist. If a compound acted as a potentiator, an EC50 value for potentiation and a maximum extent of potentiation by the compound at this concentration of agonist was determined by non-linear curve fitting. In the second mode, several fixed concentrations of the present compounds were added to various wells on a plate, followed by a range of concentrations of agonist for each concentration of present compound; the EC50 values for the agonist at each concentration of compound were determined by non-linear curve fitting. A decrease in the EC50 value of the agonist with increasing concentrations of the present compounds (a leftward shift of the agonist concentration-response curve) is an indication of the degree of mGluR5 potentiation at a given concentration of the present compound. An increase in the EC50 value of the agonist with increasing concentrations of the present compounds (a rightward shift of the agonist concentration-response curve) is an indication of the degree of mGluR5 antagonism at a given concentration of the present compound. The second mode also indicates whether the present compounds also affect the maximum response to mGluR5 to agonists.
Human embryonic kidney (HEK) cells transfected with rat mGluR5 were plated in clear-bottomed, poly-D-lysine-coated assay plates in glutamate-glutamine-free medium growth and incubated overnight at 37° C. in 5% CO2. The following day, cells were loaded with 2 μM calcium indicator dye, fluo-4 AM, for 1 h at 37° C. Dye was removed and replaced with assay buffer containing 1× Hanks balanced salt solution (Invitrogen, Carlsbad, Calif.), 20 mM HEPES, and 2.5 mM probenecid, pH 7.4. Cell plates were then loaded into the Functional Drug Screening System 6000 (FDSS 6000, Hamamatsu, Japan). After establishment of a fluorescence baseline for twelve seconds, the compounds of the present invention were added to the cells, and the response in cells was measured. Five minutes later, an mGluR5 agonist (e.g., glutamate, 3,5-dihydroxyphenylglycine, or quisqualate) was added to the cells, and the response of the cells was measured during a 1 minute incubation with agonists. Typically, the effect of test compounds of the present invention was on an EC20 concentration of glutamate was measured. All test compounds were dissolved and diluted in 100% DMSO and then serially diluted into assay buffer for a 2.5× stock in 0.25% DMSO; stock compounds were then added to the assay for a final DMSO concentration of 0.1%. Calcium fluorescence measures were recorded as fold over basal fluorescence; raw data was then normalized to the maximal response to agonist. Potentiation of the agonist response of mGluR5 by the compounds in the present invention was observed as an increase in response to non-maximal concentrations of agonist (here, glutamate) in the presence of compound compared to the response to agonist in the absence of compound. […]

[1] = Table 1, EC50 for potentiating the mGluR5 receptor, unit inferred
[2] = HEK293, maximum extent of potentiation, normalized to maximal response to glutamate, SAR tables, read-out: % Glu Max
[3] = potentiation of glutamate response, HEK cells transfected with rat mGluR5, SAR tables
[4] = HEK293, read-out: % Glu Max, maximum extent of potentiation, normalized to maximal response to glutamate, SAR tables

T1 sequence (P31424 21-1203): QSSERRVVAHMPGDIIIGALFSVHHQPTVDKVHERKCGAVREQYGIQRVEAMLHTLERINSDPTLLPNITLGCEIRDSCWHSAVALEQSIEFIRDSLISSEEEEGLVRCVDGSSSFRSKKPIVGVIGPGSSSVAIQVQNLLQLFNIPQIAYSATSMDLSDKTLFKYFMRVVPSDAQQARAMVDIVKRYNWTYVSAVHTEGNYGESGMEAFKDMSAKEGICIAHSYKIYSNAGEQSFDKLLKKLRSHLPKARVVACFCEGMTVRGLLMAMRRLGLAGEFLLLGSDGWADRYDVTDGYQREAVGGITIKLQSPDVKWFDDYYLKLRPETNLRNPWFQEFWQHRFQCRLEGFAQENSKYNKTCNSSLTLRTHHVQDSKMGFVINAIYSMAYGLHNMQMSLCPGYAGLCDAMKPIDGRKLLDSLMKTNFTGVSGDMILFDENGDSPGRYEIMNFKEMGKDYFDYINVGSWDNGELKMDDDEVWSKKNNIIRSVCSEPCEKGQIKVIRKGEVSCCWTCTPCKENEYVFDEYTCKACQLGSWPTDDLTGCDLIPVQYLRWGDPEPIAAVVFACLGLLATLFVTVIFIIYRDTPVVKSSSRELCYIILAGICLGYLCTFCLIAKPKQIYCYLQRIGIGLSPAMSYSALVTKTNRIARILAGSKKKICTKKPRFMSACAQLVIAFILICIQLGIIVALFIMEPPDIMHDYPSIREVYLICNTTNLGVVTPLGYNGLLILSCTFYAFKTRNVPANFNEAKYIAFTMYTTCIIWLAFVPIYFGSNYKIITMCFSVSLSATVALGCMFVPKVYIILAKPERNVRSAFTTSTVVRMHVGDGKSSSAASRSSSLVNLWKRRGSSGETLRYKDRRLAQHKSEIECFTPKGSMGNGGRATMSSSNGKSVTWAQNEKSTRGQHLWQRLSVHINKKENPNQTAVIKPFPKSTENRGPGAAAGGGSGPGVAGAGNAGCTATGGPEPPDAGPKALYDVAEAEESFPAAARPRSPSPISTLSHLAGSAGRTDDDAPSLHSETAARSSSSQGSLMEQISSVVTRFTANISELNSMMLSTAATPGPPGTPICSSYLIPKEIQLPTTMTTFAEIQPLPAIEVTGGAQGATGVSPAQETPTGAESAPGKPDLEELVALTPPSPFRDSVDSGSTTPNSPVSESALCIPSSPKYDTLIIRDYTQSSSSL

Row | SMILES | EC50 [1] [nM] | Emax [2] [%] | EC50 [3] [nM] | Emax [4] [%]
1 | COc1ccccc1N1CCN(C(=O)c2ccc(C#Cc3ccccc3)cc2)CC1 [(4-(2-methoxyphenyl)piperazin-1-yl)(4-(phenylethynyl)phenyl)methanone] | 2100 | – | – | –
2 | O=C(NCCc1cccc(Cl)c1)c1ccc(C#Cc2ccccc2)cc1 [N-(3-chlorophenethyl)-4-(phenylethynyl)benzamide] | 206 | – | – | –
3 | O=C(c1ccc(C#Cc2ccc(F)c(F)c2)cc1)N1CCC(CO)CC1 [Compound 20h, (4-((3,4-difluorophenyl)ethynyl)phenyl)(4-(hydroxymethyl)piperidin-1-yl)methanone] | 81.7 | 104 | 76.3 | –
4 | O=C(c1ccc(C#Cc2cccc(F)c2)cc1)N1CCC(CO)CC1 [Compound 20f, (4-((3-fluorophenyl)ethynyl)phenyl)(4-(hydroxymethyl)piperidin-1-yl)methanone] | 11.9 | 86 | 11.9 | –
5 | O=C(c1ccc(C#Cc2ccccc2)cc1)n1c(=O)n(C2CCNCC2)c2cc(Cl)ccc21 [5-chloro-1-(4-(phenylethynyl)benzoyl)-3-(piperidin-4-yl)-1H-benzo[d]imidazol-2(3H)-one] | 3720 | – | – | –
6 | O=C(c1ccc(C#Cc2ccc(F)cc2)cc1)N1CC(O)C1 [Compound 20o, (4-((4-fluorophenyl)ethynyl)phenyl)(3-hydroxyazetidin-1-yl)methanone] | 162 | 103 | 155 | –
7 | O=C(NCCCN1CCOCC1)c1ccc(C#Cc2ccccc2)cc1 [N-(3-morpholinopropyl)-4-(phenylethynyl)benzamide] | 1230 | – | – | –
8 | O=C(c1ccc(C#Cc2ccccc2)cc1)N1CCC(O)(c2cccs2)CC1 [Compound 7d, (4-hydroxy-4-(thiophen-2-yl)piperidin-1-yl)(4-(phenylethynyl)phenyl)methanone] | 1070 | – | 1000 | 95
9 | O=C(c1ccc(C#Cc2ccccc2F)cc1)N1CCOCC1 [Compound 20i, (4-((2-fluorophenyl)ethynyl)phenyl)(morpholino)methanone] | 12 | 105 | 12 | –
10 | COc1ccc(C2(O)CCN(C(=O)c3ccc(C#Cc4ccccc4)cc3)CC2)cc1 [Compound 7g] | – | – | 2450 | 91
11 | O=C(c1ccc(C#Cc2ccccc2)cc1)N1CCC(NC2CCC2)CC1 [(4-(cyclobutylamino)piperidin-1-yl)(4-(phenylethynyl)phenyl)methanone] | 212 | – | – | –
12 | O=C(c1ccc(C#Cc2ccc(F)c(F)c2)cc1)N1CC(O)C1 [Compound 20p, (4-((3,4-difluorophenyl)ethynyl)phenyl)(3-hydroxyazetidin-1-yl)methanone] | 387 | 88 | 314 | –
13 | CC1CCCCN1C(=O)c1ccc(C(=O)Nc2ccc(F)cc2)cc1 (stereo not drawn) [N-(4-fluorophenyl)-4-(2-methylpiperidine-1-carbonyl)benzamide] | 3330 | – | – | –
14 | CN1CCN(C(=O)c2ccc(C#Cc3ccccc3)cc2)CC1 [(4-methylpiperazin-1-yl)(4-(phenylethynyl)phenyl)methanone] | 166 | – | – | –
15 | O=C(c1ccc(C#Cc2ccccc2)cc1)N1CCC2CCCCC2C1 (stereo not drawn) [(octahydroisoquinolin-2(1H)-yl)(4-(phenylethynyl)phenyl)methanone] | 593 | – | – | –
16 | CCCNC(=O)c1ccc(-c2nc(-c3ccccc3)no2)cc1 [4-(3-phenyl-1,2,4-oxadiazol-5-yl)-N-propylbenzamide] | 2270 | – | – | –
17 | CC1(O)CCN(C(=O)c2ccc(C#Cc3ccc(F)c(F)c3)cc2)CC1 [Compound 20d, (4-((3,4-difluorophenyl)ethynyl)phenyl)(4-hydroxy-4-methylpiperidin-1-yl)methanone] | 156 | 91 | 137 | –
18 | O=C(c1ccc(C#Cc2ccccc2)cc1)N1CCC(n2c(=O)[nH]c3ccccc32)CC1 [1-(1-(4-(phenylethynyl)benzoyl)piperidin-4-yl)-1H-benzo[d]imidazol-2(3H)-one] | 1470 | – | – | –
19 | O=C(c1ccc(C#Cc2ccccc2)cc1)N1CCOCC1 [morpholino(4-(phenylethynyl)phenyl)methanone] | 5.28 | – | – | –
20 | O=C(c1ccc(C#Cc2ccccc2)cc1)N1CCC(N2CCCC2)CC1 [(4-(phenylethynyl)phenyl)(4-(pyrrolidin-1-yl)piperidin-1-yl)methanone] | 3730 | – | – | –
21 | COCCNC1CCN(C(=O)c2ccc(C#Cc3ccccc3)cc2)CC1 [(4-(2-methoxyethylamino)piperidin-1-yl)(4-(phenylethynyl)phenyl)methanone] | 1190 | – | – | –
22 | CC(C)C1(O)CCN(C(=O)c2ccc(C#Cc3ccccc3)cc2)CC1 [Compound 7c, (4-hydroxy-4-isopropylpiperidin-1-yl)(4-(phenylethynyl)phenyl)methanone] | 1800 | – | 1770 | 89.1
23 | COc1ccc(C2(O)CCN(C(=O)c3ccc(C#Cc4ccccc4)cc3)CC2)cc1 [drawing 173, (4-hydroxy-4-(4-methoxyphenyl)piperidin-1-yl)(4-(phenylethynyl)phenyl)methanone] | 2630 | – | – | –
24 | O=C(c1ccc(C#Cc2ccccc2)cc1)N1CCC(O)(c2ccc(Cl)cc2)CC1 [(4-(4-chlorophenyl)-4-hydroxypiperidin-1-yl)(4-(phenylethynyl)phenyl)methanone] | 6460 | – | – | –

More lines, in order of falling EC50 [1], values ahead:

Row | EC50 [1] [nM] | Emax [2] [%] | EC50 [3] [nM] | SMILES | Emax [4] [%]
25 | 4200 | – | – | N#Cc1ccccc1N1CCN(C(=O)c2ccc(C#Cc3ccccc3)cc2)CC1 | –
26 | 1870 | 77 | 1790 | O=C(c1ccc(C#CC2CCCCC2)cc1)N1CCC(O)CC1 [Compound 19m, (4-(cyclohexylethynyl)phenyl)(4-hydroxypiperidin-1-yl)methanone] | –
27 | 1120 | – | – | COCCCNC(=O)c1ccc(-c2nc(-c3ccc(F)cc3)no2)cc1 [4-(3-(4-fluorophenyl)-1,2,4-oxadiazol-5-yl)-N-(3-methoxypropyl)benzamide] | –
28 | 1110 | – | – | O=C(c1ccc(C#Cc2ccccc2)cc1)N1CCC(N2CCC2)CC1 [(4-(azetidin-1-yl)piperidin-1-yl)(4-(phenylethynyl)phenyl)methanone] | –
29 | 237 | – | – | O=C(NCCc1ccc(Br)cc1)c1ccc(C#Cc2ccccc2)cc1 [N-(4-bromophenethyl)-4-(phenylethynyl)benzamide] | –
30 | 159 | – | – | O=C(NC1Cc2ccccc2C1)c1ccc(C#Cc2ccccc2)cc1 [N-(2,3-dihydro-1H-inden-2-yl)-4-(phenylethynyl)benzamide] | –
31 | 129 | – | – | C[C@H](NC1CCN(C(=O)c2ccc(C#Cc3ccccc3)cc2)CC1)C1CCCCC1 [(S)-(4-(1-cyclohexylethylamino)piperidin-1-yl)(4-(phenylethynyl)phenyl)methanone] | –
32 | 113 | – | – | O=C(c1ccc(C#Cc2ccccc2)cc1)N1CCC(N2CCN(c3ccncc3)CC2)CC1 [(4-(phenylethynyl)phenyl)(4-(4-(pyridin-4-yl)piperazin-1-yl)piperidin-1-yl)methanone] | –
33 | 75.3 | – | – | O=C(NCCC1=CCCCC1)c1ccc(C#Cc2ccccc2)cc1 [N-(2-cyclohexenylethyl)-4-(phenylethynyl)benzamide] | –
34 | 14.7 | – | – | CCCNC(=O)c1ccc(C#Cc2ccccc2)cc1 [4-(phenylethynyl)-N-propylbenzamide] | –
35 | 2.78 | – | – | O=C(NC1CCCC1)c1ccc(C#Cc2ccccc2)cc1 [N-cyclopentyl-4-(phenylethynyl)benzamide] | –
